Assay results as given in patent US6254899A, “Plant extract compositions, method of preparation, and pharmaceutical compositions containing them” (Laboratoires Remilea, priority 1999, dated 2001).

Tests used:
[1] = Test of anti-inflammatory activity: carragheenin-induced podal edema in rats; type: in vivo, rat (Ico male and female, Sprague Dawley)
Method: 1. Test of Anti-inflammatory Activity
Podal edema induced by carragheenin is used to evaulate the anti-inflammatory activity of the products tested.
The products were tested on Ico male rats and female rats (Sprague Dawley) of approximately 250 g provided by the company IFFA-CREDO.
The products tested were suspended in the hydroxypropyl methyl cellulose (HPMC).
A volume of 5 ml per kg of body weight was administered to the animals by oral route according to the protocol detained in the table below.
Batch Salix Tanacetum Copper Quantity Volume
no. alba parthenium gluconate of excipient administered
Batch / 900 mg / 15.0 ml) 5 ml/kg
The control animals received either the placebo (T+), i.e. solely the HPMC, or indomethacin (T-) by oral route.
The treatment took place two hours before the experiment. One hour after oral administration of the product to be tested, all the animals received 0.2 ml of a 2% solution of carragheenin (Satia) in a 0.9% solution of sodium chloride at by injection in the right back paw (T0).
The podal volume of each rat was measured using a plethysmometer. The podal edema of each animal was measured at times T0, T0 +60 minutes, T0 +120 minutes, T0 +240 minutes.
The results were expressed in average percentages of inflammation relative to the control values (T^+) before the treatment and at each of the measuring times as well as in the percentage reduction of the edema compared to a control before the treatment and against each of the measuring times.

[2] = Test of analgesic activity: phenyl benzoquinone (PBQ) induced abdominal cramps in mice; type: in vivo, mice (male); conditions: aspirin 100 mg/kg
Method: 50 male mice of 20-24 g supplied by the company IFFA-CREDO (France) were divided into 5 batches. The products studied were administered: by oral route thirty minutes before injection of phenyl benzoquinone (PBQ): (PBQ 20 mg+alcohol 5 ml+water qsp 100 ml). by intraperitoneal route at the rate of 0.20 ml per mouse.
The products to be tested were suspended in the excipient HPMC (hydroxypropyl cellulose methyl).
The animals were treated as below: […]
4. Tanacetum parthenium 150 10 […]
Aspirin was used as the reference analgesic product.
PBQ induces abdominal cramps indicating the intensity of the pain. The number of cramps per mouse was measured 1 hr and 2 hrs after administration of the product tested (30 mn and 1 hr 30 minutes after injection of PBQ).
The results were expressed as the percentage: […]
Number of cramps of the control batch - number of cramps of
Number of cramps of the control batch

## COc1ccc2c(c1)c(CC(=O)O)c(C)n2C(=O)c1ccc(Cl)cc1 [Indomethacin]
[1]; 1 hour, "-" reduction, "+" increase in inflammation
  % change of inflammation compared with the control (T+), 1 hour: -16.74%
[1]; 2 hours, "-" reduction, "+" increase in inflammation
  % change of inflammation compared with the control (T+), 2 hours: -36.7%
[1]; 4 hours, "-" reduction, "+" increase in inflammation
  % change of inflammation compared with the control (T+), 4 hours: -50.38%
[1]; oral, 5 ml/kg, 1 hour
  % inflammation after 1 hour: 38.34%
[1]; oral, 5 ml/kg, 2 hours
  % inflammation after 2 hours: 51.85%
[1]; oral, 5 ml/kg, 4 hours
  % inflammation after 4 hours: 71.38%

## CC(=O)Oc1ccccc1C(=O)O [aspirin]
[2]; 60 mins after administration, Salix alba 150 mg/kg
  Reduction of number of abdominal cramps, 1 hr: 33%
[2]; 120 mins after administration, Salix alba or Tanacetum parthenium 150 mg/kg
  Reduction of number of abdominal cramps, 2 hrs: 55%
